Laboratory results from patent US20240025903A1, “Bicyclic Compounds and Uses Thereof for the Treatment of Diseases” (Athira Pharma, Inc., priority 2020, published 2024).

Columns and labels:
MDCK cells = assay: Cell scattering behavior assay; assay type: cell-based; set-up: key: − indicates that the compound failed to significantly promote cell scattering behavior; + indicates maximum potency at or above 100 nM; ++ indicates maximum potency at or above 10 nM; +++ indicates maximum potency at or above 1 nM; ++++ indicates maximum potency at or above 0.1 nM; conditions: 5 ng/mL HGF, 24 hours, normalized particle count vs HGF alone
Method: MDCK cells were grown under normal conditions and observed to spontaneously form tight colonies as they proliferate. MDCK cells respond to HGF treatment by moving away from each other (scattering), which is quantified to assess the amount of HGF/MET activation in the cell population. In this experiment, MDCK cells were plated in a 96-well format, treated with HGF and exemplary compounds, fluorescently stained, imaged in large fields, and scattering behavior was quantified. Quantification was determined by analyzing the number of continuous groups of cells compared to the total stained area imaged (normalized particle counts).
MDCK cells were plated at low density in black-walled imaging plates and allowed to attach overnight at 37° C. and 5% CO2 in DMEM+10% FBS. Cells were then starved to 2 hours in DMEM without FBS (“starve media”). Samples containing exemplary compounds were prepared in DMEM without FBS and included 5 ng/mL HGF protein (“treatment media”). A control curve was also prepared for each plate using HGF concentrations of 0, 5, 10, and 20 ng/mL. Starve media was replaced with treatment media and cells were incubated for 24 hours at 37° C. and 5% CO2.
After incubation, cells were fixed by replacing treatment media with cold ethanol and incubating for 20 minutes at 4° C. Cells were then rehydrated by washing with PBS and then with stain solution (fluorescent wheat germ agglutinin; WGA488 at 20 μg/mL in PBS). Cells were incubated with stain solution 30 minutes at room temperature after which stain solution was replaced with fresh PBS.
Fields of cells were imaged using an iCyte high content imager in the green wavelength. Images were converted to binary and analyzed for particle size and particle count. For the purpose of analysis, an individual cell touching no other cells or separated colonies of cells were identified as particles, and particle counts were normalized by the total signal area to account for differences in cell number. […] Compound potency was assessed by statistical increase in normalized particle count compared to HGF treatment alone.

[1] = Parallel artificial membrane permeability assay (PAMPA); assay type: in vitro ADME; conditions: PBS, room temperature
Method: Bioavailable drugs must permeate the cellular membranes of the lining of the digestive tract. To estimate the penetrability of exemplary compounds, the in vitro parallel artificial membrane permeability assay (PAMPA) was utilized.
Test compounds must have a standard curve in the final read plate to determine partitioned concentration of each drug. A 6-point standard curve was prepared for each compound from 0 to 200 μM in phosphate-buffered saline (PBS).
Test compound solution (300 μL in PBS) was added to the donor (bottom) well of the PAMPA plate in 5 replicates and PBS vehicle (200 μL) was added to the acceptor (top) wells of appropriate wells to match the loading of the donor plate. The bottom and top of the PAMPA plates were then sandwiched together. The PAMPA plates were then incubated at room temperature for 5 hours. After incubation, 150 μL of donor solution was added to a UV compatible plate containing the corresponding standard curve. 150 μL of acceptor well solution was added adjacent to the corresponding standard curve and donor well samples for that compound. The plate was then read using a UV plate reader.
Permeability and membrane retention were then calculated based on the following formulas:
Permeability (cm/s): (Pe)(cm/s)={−ln [1−CA(t)/Ceq]}/[A*(1/VD+1/VA)*t] (equation 1) • where: • A=filter area (0.3 cm^2); • VD=donor well volume (0.3 mL); • VA=acceptor well volume (0.2 mL); • t=incubation time (seconds); • CA(t)=compound concentration in acceptor well at time t; • CD(t)=compound concentration in donor well at time t; and • Ceq=[CD(t)*VD+CA(t)*VA]/(VD+VA).
Membrane Retention (R)=1−[CD(t)*VD+CA(t)*VA]/(C0*VD) (equation 2) • where: • CD(t), VD, CA(t), and VA are as defined for equation 1, and • C0=initial concentration in donor well (200 uM).

[2] = Turbidimetric solubility assay; assay type: physicochemical; conditions: aqueous buffer, kinetic from dmso stock, PBS, 37° C., absorbance 620 nm
Method: Aqueous solubility is a critical drug property that helps to predict bioavailability. Generally, compounds with aqueous solubility <100 μg/ml are poor drugs.
To assess a compound's solubility by turbidity, test compounds were first dissolved in organic solvent (DMSO) at a concentration of 10 mM. This compound solution was then diluted in aqueous solvent (PBS) in a dilution series from […] in a 96-well assay plate. Solutions were incubated at 37° C. for 2 hours.
In wells with test compounds over their solubility limit, the compound will precipitate, effectively blocking the passage of light and thus increasing the absorbance signal of UV light at a wavelength of 620 nm. Compounds were considered insoluble at a tested concentration if turbidity raises the absorbance more than 10% above control reads.

HepG2 cells = assay: Cytotoxicity assay (LDH release); assay type: cell-based; conditions: 48 hours, 0.1 to 100 μM
Method: This experiment was designed to obtain a preliminary assessment of cytotoxicity.
HepG2 cells were plated in 96-well cell culture plates and allowed to attach overnight at 37° C., 5% CO2 in EMEM+10% FBS. Treatments were made in complete media (EMEM+10% FBS) and included a dilution series of test compounds from 0.1 to 100 μM. Known cytotoxin cerivastatin was used as a positive assay control and prepared at a final concentration of 0.5 μM.
Growth media was replaced with treatment media (EMEM+10% FBS containing test compound dissolved in DMSO) and cells were incubated with test compounds for 48 hours. At the end of the incubation period, supernatant media from each well was transferred to a new plate and LDH assay working solution was added. LDH assay solution undergoes a colorimetric reaction in proportion to the amount of lactate dehydrogenase (an intracellular protein that was only found in the media in the presence of lysed cells) in the media. Color reaction was quantified by measurement of absorbance at a wavelength of 490 nm.
The signal range of the assay was determined by no manipulation in a negative control treatment and full lysis of all cells in a lysis control sample. Compounds that increase the level of cytotoxicity more than 20% above negative control samples were considered cytotoxic in this assay.

HGF/MET system = biological target: T1, HGF/MET system (Homo sapiens, UniProt P08581+P14210); assay: Phospho-MET ELISA; assay type: cell-based; set-up: key: − indicates that the compound failed to significantly augment MET phosphorylation; + indicates maximum potency at or above 100 nM; ++ indicates maximum potency at or above 10 nM; +++ indicates maximum potency at or above 1 nM; ++++ indicates maximum potency at or above 0.1 nM; conditions: HEK293 cells, 1 ng/mL recombinant HGF, 15 minutes, pMET ELISA
T1 construct: HEK293 cells were prepared by passage into 6-well multi-plates; endogenous in cells; host or cells: HEK293
T1 sequence (P08581 308-1390 limits assumed): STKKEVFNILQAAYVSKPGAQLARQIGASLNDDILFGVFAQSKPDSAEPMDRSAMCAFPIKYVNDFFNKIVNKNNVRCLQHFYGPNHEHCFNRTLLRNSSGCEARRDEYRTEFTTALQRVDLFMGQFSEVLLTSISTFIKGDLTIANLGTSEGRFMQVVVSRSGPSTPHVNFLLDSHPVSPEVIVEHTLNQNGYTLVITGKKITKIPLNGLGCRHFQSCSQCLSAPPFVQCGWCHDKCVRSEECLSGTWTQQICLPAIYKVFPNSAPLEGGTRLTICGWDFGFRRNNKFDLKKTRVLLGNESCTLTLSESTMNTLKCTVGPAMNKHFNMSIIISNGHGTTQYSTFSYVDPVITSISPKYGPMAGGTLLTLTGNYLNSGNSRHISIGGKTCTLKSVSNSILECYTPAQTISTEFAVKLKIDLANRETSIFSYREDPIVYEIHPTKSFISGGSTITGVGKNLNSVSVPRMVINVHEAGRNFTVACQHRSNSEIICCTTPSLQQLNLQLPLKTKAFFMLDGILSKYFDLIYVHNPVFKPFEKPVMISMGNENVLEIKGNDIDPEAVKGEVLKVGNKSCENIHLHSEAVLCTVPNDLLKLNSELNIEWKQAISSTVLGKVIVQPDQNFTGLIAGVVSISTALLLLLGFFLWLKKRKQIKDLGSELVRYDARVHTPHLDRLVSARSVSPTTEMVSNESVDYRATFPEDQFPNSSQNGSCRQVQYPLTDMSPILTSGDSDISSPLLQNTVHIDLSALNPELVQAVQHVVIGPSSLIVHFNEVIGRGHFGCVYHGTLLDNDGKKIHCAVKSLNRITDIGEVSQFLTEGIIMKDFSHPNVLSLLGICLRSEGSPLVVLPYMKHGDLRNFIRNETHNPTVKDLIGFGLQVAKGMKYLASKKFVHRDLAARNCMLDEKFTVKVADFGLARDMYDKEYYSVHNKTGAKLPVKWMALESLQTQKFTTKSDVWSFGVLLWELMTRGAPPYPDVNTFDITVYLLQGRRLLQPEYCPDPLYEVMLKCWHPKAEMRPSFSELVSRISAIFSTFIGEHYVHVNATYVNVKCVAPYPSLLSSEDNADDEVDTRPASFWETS
T1 sequence (P14210 32-494 limits assumed): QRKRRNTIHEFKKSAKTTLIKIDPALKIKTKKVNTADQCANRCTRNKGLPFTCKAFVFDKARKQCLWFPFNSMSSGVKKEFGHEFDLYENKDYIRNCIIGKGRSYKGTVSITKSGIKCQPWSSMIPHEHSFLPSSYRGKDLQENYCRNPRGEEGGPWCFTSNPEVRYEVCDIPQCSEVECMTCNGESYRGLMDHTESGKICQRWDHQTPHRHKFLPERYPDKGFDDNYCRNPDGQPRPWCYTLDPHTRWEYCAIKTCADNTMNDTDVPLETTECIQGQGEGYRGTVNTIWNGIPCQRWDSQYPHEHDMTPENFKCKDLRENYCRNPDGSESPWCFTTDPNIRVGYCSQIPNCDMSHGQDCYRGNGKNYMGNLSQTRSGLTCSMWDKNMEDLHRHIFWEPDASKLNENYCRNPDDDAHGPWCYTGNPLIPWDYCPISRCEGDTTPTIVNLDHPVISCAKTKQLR
Method: Compounds were screened for potency towards the HGF/MET system using phospho-MET (pMET) ELISA kits (Cell Signaling). pMET levels were detected in samples having low (1 ng/mL) and high (10 ng/mL) concentrations of HGF.
HEK293 cells were prepared by passage into 6-well multi-plates and grown at 37° C. at 5% CO2 in DMEM+10% FBS until approximately 90% confluent. Cells were then starved for at least 8 hours in serum-free growth media.
Exemplary compounds were prepared in DMEM+0.1% FBS, diluted and added to treatment media with 1 ng/mL recombinant HGF protein (R&D Systems). Cells were incubated in triplicate at 37° C. and 5% CO2 for 15 minutes. Samples were then treated with 180 μL ice-cold RIPA (radioimmunoprecipitation assay) buffer and cells were lysed on ice for 15 minutes. Lysates were cleared by centrifugation at 16,000-g for 15 minutes and the supernatant was retained. Samples were normalized using a BCA assay of lysates to determine protein concentrations across the samples.
Between 50 and 100 μg total protein lysate was loaded into ELISA wells in pMET Sandwich ELISA kit (Cell Signaling Catalog #7227C), ensuring equal protein load in each well. The ELISA was processed according to manufacturer's instructions. After color developed, absorbance was read on an optical plate reader at 450 nm.
Potency measurements were determined using peak efficacy by scaling test compound dose treatments along a scale of 1-10 between 1 ng/mL and 10 ng/mL HGF doses according to the following formula: […]
where y is the normalized data-point, x is the raw data point, A is the mean HGF at 1 ng/mL, and B is the mean HGF at 10 ng/mL.

Papp at 5 h, 200 µM [1] [×10⁻⁶ cm/s]	solubility at 2 h [2] [µM]	SMILES	Potency (cell scattering) (MDCK cells)	Cytotoxicity (HepG2 cells)	Potency (augmentation of MET phosphorylation) (HGF/MET system)	Permeability ([1]; 5 hours)
< 2	> 30	CC1C(=O)N(CCC2CCCC2)CC2N(Cc3ccc(C(F)(F)F)c(Cl)c3)CCC(=O)N12 (stereo not drawn) [Compound 54]	−	+++ (+++ indicates non-toxic at 10 μM)	−	
> 10	> 300	CCC(C)CN1CC2N(C(=O)c3ccc(O)nc3)CCC(=O)N2[C@@H](C)C1=O (stereo partly drawn) [Compound 4a]	+ (+ indicates maximum potency at or above 100 nM)	++++ (++++ indicates non-toxic at 100 μM)	+ (+ indicates maximum potency at or above 100 nM)	
> 2	> 300	CCC(C)CN1CC2N(Cc3ccc(F)cc3)CCC(=O)N2C(C)C1=O (stereo not drawn) [Compound 42]	+++ (+++ indicates maximum potency at or above 1 nM)	++++ (++++ indicates non-toxic at 100 μM)	++++ (++++ indicates maximum potency at or above 0.1 nM)	
< 2	> 100	CCC(C)CN1CC2N(Cc3ccc(OC(F)F)cc3)CCC(=O)N2C(CC(C)C)C1=O (stereo not drawn) [Compound 53, 1-(4-(difluoromethoxy)benzyl)-6-isobutyl-8-(2-methylbutyl)hexahydro-4H-pyrazino[1,2-a]pyrimidine-4,7(6H)-dione]	+++ (+++ indicates maximum potency at or above 1 nM)	+++ (+++ indicates non-toxic at 10 μM)	++ (++ indicates maximum potency at or above 10 nM)	
	> 300	CC1C(=O)N(CC2CCC2)CC2N(C(=O)c3ccc(C(F)(F)F)cc3)CCC(=O)N12 (stereo not drawn) [Compound 16]	−		−	

The next lines start with the compound.

SMILES	Papp at 5 h, 200 µM [1] [×10⁻⁶ cm/s]	solubility at 2 h [2] [µM]	Potency (cell scattering) (MDCK cells)	Cytotoxicity (HepG2 cells)	Potency (augmentation of MET phosphorylation) (HGF/MET system)	Permeability ([1]; 5 hours)
CCC(C)CN1CC2N(Cc3ccc(OC(F)F)cc3)CCC(=O)N2C(CC(=O)O)C1=O (stereo not drawn) [Compound 49, 2-(1-(4-(difluoromethoxy)benzyl)-8-(2-methylbutyl)-4,7-dioxooctahydro-2H-pyrazino[1,2-a]pyrimidin-6-yl)acetic acid]	> 2	> 300	++++ (++++ indicates maximum potency at or above 0.1 nM)	++++ (++++ indicates non-toxic at 100 μM)	++++ (++++ indicates maximum potency at or above 0.1 nM)	
CCC(C)CN1CC2N(C(=O)c3ccc(O)cc3)CCC(=O)N2[C@@H](C)C1=O (stereo partly drawn) [Compound 3a]		> 300	−		−	+++ (+++ indicates permeability below 2 × 10^−6 cm/s)
CCC(C)N1CC2N(Cc3ccc(O)cc3)CCC(=O)N2CC1=O (stereo not drawn) [Compound 9]	> 2	> 300	−	++++ (++++ indicates non-toxic at 100 μM)	−	
CC1C(=O)N(CCC2CCC2)CC2N(Cc3ccc(C(F)(F)F)c(Cl)c3)CCC(=O)N12 (stereo not drawn) [Compound 51]	< 2	> 100	+++ (+++ indicates maximum potency at or above 1 nM)	+++ (+++ indicates non-toxic at 10 μM)	+++ (+++ indicates maximum potency at or above 1 nM)	
CCC(C)CN1CC2N(Cc3ccc(OC(F)F)cc3)CCC(=O)N2C(CC(N)=O)C1=O (stereo not drawn) [Compound 50, 2-(1-(4-(difluoromethoxy)benzyl)-8-(2-methylbutyl)-4,7-dioxooctahydro-2H-pyrazino[1,2-a]pyrimidin-6-yl)acetamide]		> 300	−		−	
